The source made the active and inactive calls. The calls are words filed in the database; no cut-off is given here.
Columns and labels:
[1] = molecular target: T1, Serotonin 3 (5-HT3) receptor (Rattus norvegicus, UniProt P35563+Q9JJ16); test: Displacement of [3H]GR65630 from 5HT3 receptor in brain cortex from Wistar rat; format: tissue-based
T1 sequence (P35563 whole entry): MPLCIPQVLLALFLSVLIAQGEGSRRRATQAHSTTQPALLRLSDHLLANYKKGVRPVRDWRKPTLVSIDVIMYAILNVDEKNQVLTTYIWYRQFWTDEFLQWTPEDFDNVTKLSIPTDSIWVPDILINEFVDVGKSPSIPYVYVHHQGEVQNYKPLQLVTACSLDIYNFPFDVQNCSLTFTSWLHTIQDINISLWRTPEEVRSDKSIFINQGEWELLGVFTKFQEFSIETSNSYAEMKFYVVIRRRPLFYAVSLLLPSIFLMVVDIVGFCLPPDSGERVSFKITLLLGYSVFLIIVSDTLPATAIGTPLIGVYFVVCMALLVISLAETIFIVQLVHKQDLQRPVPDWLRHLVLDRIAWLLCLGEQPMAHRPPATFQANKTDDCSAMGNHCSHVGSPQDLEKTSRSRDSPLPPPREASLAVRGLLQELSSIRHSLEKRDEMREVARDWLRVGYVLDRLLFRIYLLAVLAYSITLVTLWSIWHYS
T1 sequence (Q9JJ16 whole entry): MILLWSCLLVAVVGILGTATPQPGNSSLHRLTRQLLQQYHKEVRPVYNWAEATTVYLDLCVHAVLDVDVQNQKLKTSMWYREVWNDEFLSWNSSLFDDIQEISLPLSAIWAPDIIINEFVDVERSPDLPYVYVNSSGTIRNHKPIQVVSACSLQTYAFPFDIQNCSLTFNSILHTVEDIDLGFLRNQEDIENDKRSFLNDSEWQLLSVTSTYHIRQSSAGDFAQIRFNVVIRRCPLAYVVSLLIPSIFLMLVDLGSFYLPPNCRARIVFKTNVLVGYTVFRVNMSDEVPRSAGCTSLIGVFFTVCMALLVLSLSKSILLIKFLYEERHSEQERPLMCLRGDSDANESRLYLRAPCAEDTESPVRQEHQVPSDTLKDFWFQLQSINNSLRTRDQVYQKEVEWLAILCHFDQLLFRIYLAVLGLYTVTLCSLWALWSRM

[2] = molecular target: T2, Serotonin 3 receptor (5HT3) (Mus musculus) (UniProt Q9JHJ5+P23979); test: Antagonism at 5HT3 receptor in mice by von Bezold-Jarisch reflex inhibition at 10 mg/kg, ip; format: functional, organism-based; design: dose 10 mg/kg
T2 sequence (P23979 whole entry, looked up): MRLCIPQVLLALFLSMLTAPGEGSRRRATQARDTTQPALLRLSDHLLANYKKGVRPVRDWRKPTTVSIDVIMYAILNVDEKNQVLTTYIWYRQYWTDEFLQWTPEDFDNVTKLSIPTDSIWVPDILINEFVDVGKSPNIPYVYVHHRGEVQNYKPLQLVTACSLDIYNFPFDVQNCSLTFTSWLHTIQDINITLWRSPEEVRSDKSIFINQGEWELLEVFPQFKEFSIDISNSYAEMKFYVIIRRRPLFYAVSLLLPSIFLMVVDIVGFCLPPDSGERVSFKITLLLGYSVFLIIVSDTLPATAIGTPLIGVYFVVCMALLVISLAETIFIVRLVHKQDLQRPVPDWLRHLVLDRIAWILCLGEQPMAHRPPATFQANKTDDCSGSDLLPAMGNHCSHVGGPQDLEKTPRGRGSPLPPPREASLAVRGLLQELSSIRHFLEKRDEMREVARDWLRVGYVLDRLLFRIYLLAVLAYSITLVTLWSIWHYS
T2 sequence (Q9JHJ5 whole entry, looked up): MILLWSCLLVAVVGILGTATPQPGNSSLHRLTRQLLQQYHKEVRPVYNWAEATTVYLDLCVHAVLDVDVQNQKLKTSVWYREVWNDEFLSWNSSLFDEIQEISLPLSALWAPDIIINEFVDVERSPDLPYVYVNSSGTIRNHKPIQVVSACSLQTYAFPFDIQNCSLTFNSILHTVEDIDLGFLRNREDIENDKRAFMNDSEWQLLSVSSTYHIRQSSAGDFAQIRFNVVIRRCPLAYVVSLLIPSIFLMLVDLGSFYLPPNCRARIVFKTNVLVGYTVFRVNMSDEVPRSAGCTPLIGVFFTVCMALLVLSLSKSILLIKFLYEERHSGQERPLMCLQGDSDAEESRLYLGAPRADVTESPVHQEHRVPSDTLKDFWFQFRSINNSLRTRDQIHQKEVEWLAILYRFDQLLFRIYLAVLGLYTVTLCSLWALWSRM

[3] = molecular target: T2, Serotonin 3 receptor (5HT3) (Mus musculus); test: Antagonism at 5HT3 receptor in mice by von Bezold-Jarisch reflex inhibition at 1 mg/kg, ip; format: functional, organism-based; design: dose 1 mg/kg
[4] = molecular target: T3, 5-hydroxytryptamine receptor 4 (Rattus norvegicus, UniProt Q62758); test: Agonism at 5HT4 receptor in rat tunica muscularis mucosa; format: functional
T3 sequence (Q62758 whole entry): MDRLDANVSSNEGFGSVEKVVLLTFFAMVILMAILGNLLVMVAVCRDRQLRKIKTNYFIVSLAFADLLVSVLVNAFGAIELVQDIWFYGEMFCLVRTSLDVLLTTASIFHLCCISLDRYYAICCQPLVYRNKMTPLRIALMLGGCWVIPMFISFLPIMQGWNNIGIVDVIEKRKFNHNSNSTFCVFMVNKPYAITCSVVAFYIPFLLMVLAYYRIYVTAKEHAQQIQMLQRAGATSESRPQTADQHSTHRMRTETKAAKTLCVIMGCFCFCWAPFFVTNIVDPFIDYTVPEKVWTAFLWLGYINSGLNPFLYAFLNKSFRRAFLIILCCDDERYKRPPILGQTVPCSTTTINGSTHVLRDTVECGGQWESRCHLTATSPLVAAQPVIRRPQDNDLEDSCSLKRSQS

[5] = molecular target: T2, Serotonin 3 receptor (5HT3) (Mus musculus); test: Antagonism at 5HT3 receptor in mice by von Bezold-Jarisch reflex inhibition at 0.3 mg/kg, ip; format: functional, organism-based; design: dose 0.3 mg/kg
[6] = molecular target: T4, 5-hydroxytryptamine receptor 4 (Cavia porcellus, UniProt O70528); test: Displacement of [3H]GR-113808 from 5HT4 receptor in guinea pig striatum
T4 sequence (O70528 whole entry): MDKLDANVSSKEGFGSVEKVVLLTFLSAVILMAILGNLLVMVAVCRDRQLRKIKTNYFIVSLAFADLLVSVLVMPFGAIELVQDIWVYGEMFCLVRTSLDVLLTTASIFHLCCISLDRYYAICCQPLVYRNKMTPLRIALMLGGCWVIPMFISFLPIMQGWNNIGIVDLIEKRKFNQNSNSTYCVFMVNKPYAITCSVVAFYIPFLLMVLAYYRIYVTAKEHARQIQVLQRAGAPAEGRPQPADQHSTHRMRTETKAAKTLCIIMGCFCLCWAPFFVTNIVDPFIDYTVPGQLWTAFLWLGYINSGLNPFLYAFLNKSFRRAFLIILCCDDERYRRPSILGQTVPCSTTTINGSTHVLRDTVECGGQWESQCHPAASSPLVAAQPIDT

[7] = molecular target: T3, 5-hydroxytryptamine receptor 4; test: Antagonism at 5HT4 receptor in rat tunica muscularis mucosa; format: functional, tissue-based; conditions: read-out: pA2 (converted)
[8] = molecular target: T2, Serotonin 3 receptor (5HT3) (Mus musculus); test: Antagonism at 5HT3 receptor in mice by von Bezold-Jarisch reflex inhibition at 1000 mg/kg, ip; format: functional, organism-based; design: dose 1000 mg/kg
[9] = molecular target: 5-hydroxytryptamine receptor 4 (Rattus norvegicus) (UniProt Q62758); test: Antagonism at 5HT4 receptor in rat tunica muscularis mucosa upto 100-1000 nM; format: functional, tissue-based
5-hydroxytryptamine receptor 4 (Rattus norvegicus), sequence (Q62758 whole entry): as the sequence (Q62758 whole entry) above

[10] = molecular target: 5-hydroxytryptamine receptor 4 (Rattus norvegicus) (UniProt Q62758); test: Antagonism at 5HT4 receptor in rat tunica muscularis mucosa at 0.1 uM; format: functional, tissue-based
Canis familiaris [11] = test: Contractile response of the antrum in iv dosed fasted dog; format: functional; conditions: Canis lupus familiaris
Canis familiaris [12] = test: Effect on solid gastric emptying in iv dosed dog; format: functional
D(2) dopamine receptor = D(2) dopamine receptor (Homo sapiens, UniProt P14416); test: Binding affinity to dopamine receptor D2
D(2) dopamine receptor, sequence (P14416 whole entry): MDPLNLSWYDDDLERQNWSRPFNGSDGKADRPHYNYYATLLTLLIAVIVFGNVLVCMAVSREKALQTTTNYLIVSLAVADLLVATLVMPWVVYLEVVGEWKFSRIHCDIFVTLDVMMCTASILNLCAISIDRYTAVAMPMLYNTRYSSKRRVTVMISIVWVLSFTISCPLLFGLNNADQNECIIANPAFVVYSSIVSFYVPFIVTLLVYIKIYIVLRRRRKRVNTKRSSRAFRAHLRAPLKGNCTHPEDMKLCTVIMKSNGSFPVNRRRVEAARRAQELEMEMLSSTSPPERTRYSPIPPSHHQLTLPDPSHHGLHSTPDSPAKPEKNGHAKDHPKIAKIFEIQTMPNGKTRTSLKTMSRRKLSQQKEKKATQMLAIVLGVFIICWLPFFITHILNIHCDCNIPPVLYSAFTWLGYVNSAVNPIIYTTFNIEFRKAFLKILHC

[13] = molecular target: T2, Serotonin 3 receptor (5HT3) (Mus musculus); test: Antagonism at 5HT3 receptor in mice by von Bezold-Jarisch reflex inhibition at 3 mg/kg, ip; format: functional, organism-based; design: dose 3 mg/kg
Salmonella typhi [14] = test: Mutagenic activity in a GLP study using Salmonella Typhimurium TA1538 in presence of S9 fraction at 10-5000 ug/plate; format: toxicity, organism-based; conditions: salmonella enterica subsp. enterica […]
Salmonella typhi [15] = test: Mutagenic activity in a GLP study using Salmonella Typhimurium TA1535 in presence of S9 fraction at 10-5000 ug/plate; format: toxicity, organism-based; conditions: salmonella enterica subsp. enterica […]
Salmonella typhi [16] = test: Mutagenic activity in a GLP study using Salmonella Typhimurium TA100 in presence of S9 fraction at 10-5000 ug/plate; format: toxicity, organism-based; conditions: salmonella enterica subsp. enterica […]
Salmonella typhi [17] = test: Mutagenic activity in a GLP study using Salmonella Typhimurium TA98 in presence of S9 fraction at 10-5000 ug/plate; format: toxicity, organism-based; conditions: salmonella enterica subsp. enterica […]
Salmonella typhi [18] = test: Mutagenic activity in a GLP study using Salmonella Typhimurium TA97 in presence of S9 fraction at 10-5000 ug/plate; format: toxicity, organism-based; conditions: salmonella enterica subsp. enterica […]
[19] = molecular target: T4, 5-hydroxytryptamine receptor 4; test: Inhibition of [3H]GR-113808 binding to 5HT4 receptor in guinea pig striatum at 500 nM; format: tissue-based
D(1A) dopamine receptor = D(1A) dopamine receptor (Homo sapiens, UniProt P21728); test: Binding affinity to dopamine receptor D1
D(1A) dopamine receptor, sequence (P21728 whole entry): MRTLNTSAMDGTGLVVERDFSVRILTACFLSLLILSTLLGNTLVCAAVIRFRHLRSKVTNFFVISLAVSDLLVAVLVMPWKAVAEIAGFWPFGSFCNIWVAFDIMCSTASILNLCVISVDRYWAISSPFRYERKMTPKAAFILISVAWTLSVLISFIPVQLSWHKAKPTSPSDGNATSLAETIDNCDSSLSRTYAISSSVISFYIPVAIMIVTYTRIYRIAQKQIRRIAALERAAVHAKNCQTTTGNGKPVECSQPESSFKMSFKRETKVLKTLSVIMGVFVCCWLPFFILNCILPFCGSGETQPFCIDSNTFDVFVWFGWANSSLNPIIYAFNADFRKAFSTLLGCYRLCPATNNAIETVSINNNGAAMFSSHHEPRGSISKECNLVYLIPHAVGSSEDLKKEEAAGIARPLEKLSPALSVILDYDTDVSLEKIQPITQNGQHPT

[20] = molecular target: Beta-1 adrenergic receptor (Homo sapiens, UniProt P08588); test: Binding affinity to adrenergic beta-1 receptor
Beta-1 adrenergic receptor, sequence (P08588 whole entry): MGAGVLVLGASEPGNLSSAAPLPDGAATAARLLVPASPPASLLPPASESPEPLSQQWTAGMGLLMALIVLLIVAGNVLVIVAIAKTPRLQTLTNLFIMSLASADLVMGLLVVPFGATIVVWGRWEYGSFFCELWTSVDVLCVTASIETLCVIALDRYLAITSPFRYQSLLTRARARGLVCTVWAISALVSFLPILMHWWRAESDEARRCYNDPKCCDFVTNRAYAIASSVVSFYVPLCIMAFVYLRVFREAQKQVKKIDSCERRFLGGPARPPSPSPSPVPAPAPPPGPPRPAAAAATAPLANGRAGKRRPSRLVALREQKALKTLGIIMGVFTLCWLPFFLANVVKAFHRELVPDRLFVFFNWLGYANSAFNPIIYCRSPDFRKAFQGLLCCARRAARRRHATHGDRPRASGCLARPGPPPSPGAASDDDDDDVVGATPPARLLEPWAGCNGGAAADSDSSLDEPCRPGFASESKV

[21] = Binding affinity to 5HT1 receptor
[22] = molecular target: Beta-2 adrenergic receptor (Homo sapiens, UniProt P07550); test: Binding affinity to adrenergic beta-2 receptor
Beta-2 adrenergic receptor, sequence (P07550 whole entry): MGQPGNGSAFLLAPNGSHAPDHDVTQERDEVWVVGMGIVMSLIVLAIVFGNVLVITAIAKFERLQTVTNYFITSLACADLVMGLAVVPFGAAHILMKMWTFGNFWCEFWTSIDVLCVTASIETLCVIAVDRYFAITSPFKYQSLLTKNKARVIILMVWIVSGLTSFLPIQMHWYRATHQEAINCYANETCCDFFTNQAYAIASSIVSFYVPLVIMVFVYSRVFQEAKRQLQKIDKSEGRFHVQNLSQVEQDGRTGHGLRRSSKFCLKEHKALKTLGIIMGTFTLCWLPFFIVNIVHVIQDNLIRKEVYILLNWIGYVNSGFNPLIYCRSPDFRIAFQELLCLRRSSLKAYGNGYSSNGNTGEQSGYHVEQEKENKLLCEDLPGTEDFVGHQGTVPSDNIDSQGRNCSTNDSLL

[23] = Canis lupus familiaris, Stomach

Compound: CC(C)n1c(=O)n(C(=O)NC[C@@H]2CCN3CCC[C@@H]23)c2ccccc21 (relative stereo)
- Ki [1]: 20.2 nM
- inhibition [2]: 87%
- inhibition [3]: 62%
- EC50 [4]: 374 nM
- inhibition [5]: 0%
- Ki [6]: 7 nM

Compound: Cc1cnc2c(C(=O)NC[C@@H]3CCN4CCC[C@@H]34)cc(Cl)cn12
- Kb [7]: 81.3 nM

Compound: COc1cc(N)c(Cl)cc1C(=O)NC[C@@H]1CC[N@@+]2(C)CCC[C@@H]12
- inhibition [8]: 16%
- EC50 [4]: 129 nM
- Ki [6]: 0.35 nM

Compound: CCc1cc(C(=O)NC[C@@H]2CCN3CCC[C@@H]23)c2ccccn12 (relative stereo)
- pA2 [9]: inactive

Compound: Cn1c(C(=O)OC[C@@H]2CCN3CCC[C@@H]23)cc2ccccc21
- pA2 [10]: inactive

Compound: COc1cc(N)c(Cl)cc1C(=O)N[C@H]1CCN2CCC[C@@H]1C2
- ED50 (Canis familiaris [11]): 0.015 mg/kg
- EC50 [4]: 98 nM
- ED50 (Canis familiaris [12]; Canis lupus familiaris; Stomach): Active

Compound: COc1cc(N)c(Cl)cc1C(=O)NC[C@H]1CCN2CCC[C@H]12
- ED50 (Canis familiaris [11]): 0.45 mg/kg
- IC50 (D(2) dopamine receptor): 3.9 µM
- inhibition [13]: 79%
- inhibition [2]: 87%
- Activity (Salmonella typhi [14]): Not Active
- inhibition [3]: 20%
- Activity (Salmonella typhi [15]): Not Active
- EC50 [4]: 323 nM
- ED50 (Canis familiaris [12]; [23]): 1 mg/kg
- Activity (Salmonella typhi [16]): Not Active
- Activity (Salmonella typhi [17]): Not Active
- Activity (Salmonella typhi [18]): Not Active
- inhibition [19]: 18%

Compound: O=C(NC[C@@H]1CCN2CCC[C@@H]12)c1cccn2ccnc12
- Kb [7]: 178 nM

Compound: COc1ccc2[nH]cc(C(=O)OC[C@@H]3CCN4CCC[C@@H]34)c2c1
- Kb [7]: 70.8 nM

Compound: O=C(OC[C@@H]1CCN2CCC[C@@H]12)c1c[nH]c2ccc(F)cc12
- Ki [1]: 10 nM
- Kb [7]: 3.16 nM
- Ki [6]: 0.7 nM

Compound: O=C(OC[C@@H]1CCN2CCC[C@@H]12)c1cc(Cl)cn2ccnc12
- Kb [7]: 178 nM

Compound: CC1(C)C(=O)N(C(=O)NC[C@@H]2CCN3CCC[C@@H]23)c2ccccc21
- Kb [7]: 100 nM

Compound: COc1cc(N)c(Cl)cc1C(=O)NC1CCN(CCCOc2ccc(F)cc2)CC1OC (stereo not drawn) [CISAPRIDE]
- IC50 (D(1A) dopamine receptor): 1700 nM
- ED50 (Canis familiaris [11]): 0.056 mg/kg
- IC50 [20]: > 10 µM
- IC50 [21]: > 1000 nM
- ED50 (Canis familiaris [12]; [23]): 0.03 mg/kg
- IC50 [22]: > 10 µM

Compound: CCOc1cc(N)c(Cl)cc1C(=O)NC[C@@H]1CCN2CCC[C@@H]12
- IC50 (D(2) dopamine receptor): 5.3 µM
- Ki [1]: 25 nM
- inhibition [13]: 48%
- inhibition [2]: 89%
- EC50 [4]: 195 nM

Compound: CCc1nc(C(=O)NC[C@@H]2CCN3CCC[C@@H]23)c2ccccn12 (relative stereo)
- Kb [7]: 275 nM

Compound: COc1cc(N)c(Cl)cc1C(=O)OC[C@@H]1CCN2CCC[C@@H]12
- IC50 (D(2) dopamine receptor): > 10 µM
- Ki [1]: 51 nM
- inhibition [2]: 0%
- EC50 [4]: 1.5 nM
- Ki [6]: 0.183 nM

Compound: Cn1cc(C(=O)NC[C@@H]2CCN3CCC[C@@H]23)c2ccccc21
- pA2 [9]: inactive

Source: ChEMBL document CHEMBL1149398, “Pyrrolizidine esters and amides as 5-HT4 receptor agonists and antagonists” (J Med Chem, 2006)
